Counter-ions that a name gives are not always drawn.

The nature of this series: Excipient compatibility study. In kind it is physicochemical.

As for `C[C@@H](C(=O)Nc1ccc(Cl)cc1)[C@H]1CC[C@@H](c2ccnc3ccc(F)cc32)CC1` [Compound I-MSA, (R)—N-(4-chlorophenyl)-2-((1S, 4S)-4-(6-fluoroquinolin-4-yl)cyclohexyl) propanamide methane sulfonic acid salt], the “chemical stability with commonly used pharmaceutical excipients” value was “acceptable chemical stability”.

The record behind these values is US20240122857A1, “PHARMACEUTICAL FORMULATIONS OF INDOLEAMINE 2, 3-DIOXYGENASE INHIBITORS” (BRISTOL-MYERS SQUIBB COMPANY, priority 2019, published 2024).
